Source: ChEMBL document CHEMBL4219172, “Synthesis and biological evaluation of pyrimidine derivatives as novel human Pin1 inhibitors” (Bioorg Med Chem, 2018)
pIC50: −log10 of the molar value.

How the values were obtained:
[1] = molecular target: T1, Peptidyl-prolyl cis-trans isomerase NIMA-interacting 1 (Homo sapiens, UniProt Q13526); assay: Inhibition of human N-terminal His6-tagged Pin1 PPIase activity expressed in Escherichia coli BL21 using Suc-Ala-Glu-cis-Pro-Phe-4-nitroanilide as substrate preincubated for 10 mins followed by substrate addition monitored for 90 secs by protease enzyme coupled based spectrophotometric analysis
[2] = molecular target: T1, Peptidyl-prolyl cis-trans isomerase NIMA-interacting 1; assay: Inhibition of human N-terminal His6-tagged Pin1 PPIase activity expressed in Escherichia coli BL21 using Suc-Ala-Glu-cis-Pro-Phe-4-nitroanilide as substrate by beckman coulter-paradigm assay; conditions: TDE = time-dependent effect

T1 sequence (Q13526 whole entry): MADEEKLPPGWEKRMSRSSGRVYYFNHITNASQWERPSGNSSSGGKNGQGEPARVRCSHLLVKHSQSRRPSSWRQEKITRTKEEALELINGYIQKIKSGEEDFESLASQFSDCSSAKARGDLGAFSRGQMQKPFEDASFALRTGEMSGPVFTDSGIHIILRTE

Compound	pIC50 [1]	inhibition [2]
O=[N+]([O-])c1cnc(Cl)nc1Oc1cccc2ocnc12	5.77	Tde
O=[N+]([O-])c1cnc(Cl)nc1Oc1ccc(-c2ccccc2)cc1	4.47	
O=[N+]([O-])c1cnc(OCc2ccccc2)nc1Cl	5.14	Tde
N#Cc1cnc(Cl)nc1Oc1ccccc1	5.36	
FC(F)(F)c1cnc(Cl)nc1Oc1ccccc1	< 4.00	
Clc1ncc(Cl)c(Oc2ccccc2)n1	< 4.00	
O=[N+]([O-])c1cnc(Cl)nc1NC1CCCCC1	< 4.00	
O=[N+]([O-])c1cnc(Cl)nc1OC1CCCC1	< 4.00	
COc1cccc(Oc2nc(Cl)ncc2[N+](=O)[O-])c1	5.30	
O=[N+]([O-])c1cnc(Cl)nc1Oc1ccc2ccccc2c1	4.78	
Cc1cnc(Cl)nc1Oc1cccc2ocnc12	< 4.00	
O=[N+]([O-])c1cnc(Cl)nc1OC1CCCCC1	< 4.00	
Cc1cnc(Cl)nc1Oc1ccccc1	< 4.00	
O=[N+]([O-])c1cnc(Cl)nc1NCCc1ccccc1	< 4.00	
O=C1C=CC(=O)c2c(O)cccc21 [JUGLONE]	5.23	
CC1=C(/C=C/C(C)=C/C=C/C(C)=C/C(=O)O)C(C)(C)CCC1 [TRETINOIN]	6.09	
Clc1ncc(-c2nnco2)c(Nc2ccccc2)n1	< 4.00	
O=[N+]([O-])c1cnc(Cl)nc1OCc1ccccc1	5.08	Tde
O=[N+]([O-])c1cncnc1Oc1cccc2ocnc12	< 4.00	
CNc1nc(Cl)ncc1[N+](=O)[O-]	< 4.00	
O=[N+]([O-])c1cnc(-c2ccccc2)nc1Oc1cccc2ocnc12	< 4.00	
CS(=O)(=O)Nc1ccccc1Oc1nc(Cl)ncc1[N+](=O)[O-]	5.28	

Compound	pIC50 [1]	inhibition [2]
Nc1ccccc1Oc1nc(Cl)ncc1[N+](=O)[O-]	4.47	
O=C1CCC(=O)N1c1cnc(Cl)nc1Nc1ccccc1	< 4.00	
O=[N+]([O-])c1cnc(CCc2ccccc2)nc1Cl	4.86	
O=[N+]([O-])c1cnc(OCCc2ccccc2)nc1Cl	5.14	
O=[N+]([O-])c1cnc(Cl)nc1Oc1ccccc1F	5.60	
COC(=O)c1cnc(Cl)nc1Oc1cccc2ocnc12	< 4.00	
O=[N+]([O-])c1cnc(Cl)nc1NC1CCCC1	< 4.00	
FC(F)(F)c1cnc(Cl)nc1Oc1cccc2ocnc12	< 4.00	
O=[N+]([O-])c1cnc(Cl)cc1Oc1cccc2ocnc12	< 4.00	
O=[N+]([O-])c1cnc(Cl)nc1Oc1ccccc1	5.65	Tde
O=C1C=CC(=O)N1c1cnc(Cl)nc1Nc1ccccc1	4.69	
Clc1ncc(-c2ncco2)c(Nc2ccccc2)n1	5.01	
O=[N+]([O-])c1cnc(-c2ccc3ccccc3c2)nc1Oc1cccc2ocnc12	< 4.00	
Cn1nc(-c2ccccc2)cc1Oc1nc(Cl)ncc1[N+](=O)[O-]	5.66	
O=[N+]([O-])c1cnc(Cl)nc1Nc1ccccc1	5.18	
O=[N+]([O-])c1cnc(Cl)nc1Oc1ccccn1	5.46	
N#Cc1ccccc1Oc1nc(Cl)ncc1[N+](=O)[O-]	5.04	
COc1ccccc1Oc1nc(Cl)ncc1[N+](=O)[O-]	5.39	
O=[N+]([O-])c1cnc(Cl)nc1OCCc1ccccc1	5.39	
O=[N+]([O-])c1ccc(Cl)nc1Oc1cccc2ocnc12	< 4.00	
O=C(O)c1cnc(Cl)nc1Oc1cccc2ocnc12	4.72	
O=[N+]([O-])c1cnc(Cl)nc1Oc1cccc2ccccc12	4.65	
